{
  "source": "patent US20110021458A1",
  "about": "“PHARMACEUTICAL COMPOSITIONS CONTAINING AN INCLUSION COMPLEX FORMED BY DISULFIRAM AND A CYCLODEXTRINE, WHICH CAN BE USED IN THE TREATMENT OF ALCOHOL AND COCAINE DEPENDENCE” (priority 2007, published 2011)",
  "key": {"[1]": {"test_system": "rat skin in the areas of subcutaneous administration", "assay": "Histopathological study of the subcutaneous administration area", "type": "in vivo", "conditions": "for histological findings in rat skin: SC 15 mg/kg of DSF", "procedure": "FIGS. 3 to 10: histological cuts of rat skin in the areas of subcutaneous administration (SC), 15 mg/kg of DSF to the form of DSF physiological serum (PS) (A); Complex DSF-CD in SF (B), 25:75 Binary Mixture in SF (C) and control with SF (D). The histological were obtained at different times post-administration of each test. FIG. 3 is up to 8 hours post-administration; FIG. 4, to 24 hours post-administration; FIG. 5, at 48 hours post-administration; FIG. 6 to 72 hours post-administration; FIG. 7, 96 hours post-administration; FIG. 8, to 120 hours post-administration; FIG. 9, to 144 hours post administration and FIG. 10 corresponds to 168 hours post-administration.\nThe histopathological evaluation was performed for subcutaneous (SC) and intramuscular (IM) injections of DSF free, in the form of CD-DSF Complex and in the form of binary mixture in ratios of 25:75 and 40:60. water, water with 15% glycerin, miglyol and ethyl oleate were used as excipients.\n15 mg/kg of free DSF, DSF Complex-CD, Mixed Binary 25:75 and physiological saline (SF) were administered subcutaneously (SC).\nComparative histological study between physiological saline and DSF in its various forms of administration are seen in FIG. 3 to No. 10."}, "[2]": {"assay": "Pharmacokinetics in rats after SC administration (plasma total DDC)", "conditions": "rat, in vivo, 15 mg/kg", "procedure": "FIG. 19: Effect of subcutaneous administration in rats, 15 mg/kg of DSF to the form of binary mixtures in water 25:75 (A); in miglyol (B) and (C) DSF free water on the concentrations Plasma total DDC in time.\nIn addition to the histopathological studies in rats pharmacokinetic studies were conducted that measured the plasma concentrations of metabolites of DSF (DDC and MeDDC) after administration SC (FIG. 19) and/or IM (FIG. 20), 15 mg/kg weight of DSF to the form of binary mixtures.\nIt was quantified the plasma concentration of total DDC that corresponds to the sum of the metabolites and MeDDC DDC, and it was used as a parameter for the analysis of the results shown below."}},
  "data": [
    {"compound": "CCN(CC)C(=S)SSC(=S)N(CC)CC", "note": "[free DSF, 1-(diethylthiocarbamoyldisulfanyl)-N,N-diethyl-methanethioamide]", "values": [
      {"measurement": "histological findings in rat skin", "setting": "[1]; 8 hours post-administration", "value": "severe hyperemia was observed in the deep vascular plexus with bleeding in hypodermis"},
      {"measurement": "histological findings in rat skin", "setting": "[1]; 24 hours post-administration", "value": "severe hyperemia was observed in both plexus, abundant presence of inflammatory cells and hemorrhage in hypodermis"},
      {"measurement": "histological findings in rat skin", "setting": "[1]; 48 hours post-administration", "value": "severe desestructuration of the collagen fibers, hyperemia of deep vascular plexus and moderate bleeding in hypodermis"},
      {"measurement": "histological findings in rat skin", "setting": "[1]; 72 hours post-administration", "value": "moderate hyperemia was observed in both plexus, with moderate presence of inflammatory cells and hemorrhage in hypodermis"},
      {"measurement": "histological findings in rat skin", "setting": "[1]; 96 hours post-administration", "value": "moderate hyperemia of deep vascular plexus, with hemorrhage in hypodermis and severe presence of inflammatory cells"},
      {"measurement": "histological findings in rat skin", "setting": "[1]; 120 hours post-administration", "value": "moderate hyperemia of deep vascular plexus, with slight presence of inflammatory cells and desestructuration of collagen fibers"},
      {"measurement": "histological findings in rat skin", "setting": "[1]; 144 hours post-administration", "value": "moderate hyperemia of deep vascular plexus and low presence of inflammatory cells"},
      {"measurement": "histological findings in rat skin", "setting": "[1]; 168 hours post-administration", "value": "moderate hyperemia of deep vascular plexus"},
      {"measurement": "Histopathological lesions, conclusion", "setting": "[1]; SC administration", "value": "severe Histopathological lesions"},
      {"measurement": "desestructuration of the collagen fibers (summary)", "setting": "[1]; SC, rat skin, 8, 24 and 48 hours from inoculation", "value": "mild, moderate to severe"},
      {"measurement": "Hyperemia of deep vascular plexus (summary)", "setting": "[1]; SC, rat skin, 8-168 hours", "value": "severe in biopsies of 8 and 24 hours and mild to moderate in subsequent checks"},
      {"measurement": "presence of inflammatory cells, superficial vascular plexus hyperemia and hemorrhage in subcutis (summary)", "setting": "[1]; SC, rat skin, over the controls of the study", "value": "moderate to severe"},
      {"measurement": "plasma levels of active metabolites at 168 hours post-administration", "setting": "[2]", "value": "not detected"}
    ]}
  ]
}
